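Dose response: 5 concentrations. Exposure: 48 h. Format: 96-well plates. Endpoint: linear interpolation; highest concentration if not reached. Here, GI50 denotes the concentration required for 50% inhibition of growth. Definition used: TGI = concentration required for complete inhibition of growth.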
Tests used:
Assay in all cases: inhibition of tumour cell growth, NCI panel, 48 h
NCI/ADR-RES ovarian = system: NCI/ADR-RES ovarian
EKVX NSCLC = system: EKVX NSCLC
TK-10 renal = system: TK-10 renal
PC-3 prostate = system: PC-3 prostate
SNB-19 CNS = system: SNB-19 CNS
A498 renal = system: A498 renal
SK-MEL-5 melanoma = system: SK-MEL-5 melanoma
SF-268 CNS = system: SF-268 CNS
HT29 colon = system: HT29 colon

SMILES	TGI (NCI/ADR-RES ovarian)	TGI (EKVX NSCLC)	TGI (TK-10 renal)	TGI (PC-3 prostate)	TGI (SNB-19 CNS)	TGI (A498 renal)	TGI (SK-MEL-5 melanoma)	TGI (SF-268 CNS)	TGI (HT29 colon)	GI50 (NCI/ADR-RES ovarian)	GI50 (EKVX NSCLC)	GI50 (TK-10 renal)	GI50 (HT29 colon)	GI50 (PC-3 prostate)	GI50 (SNB-19 CNS)	GI50 (A498 renal)	GI50 (SK-MEL-5 melanoma)	GI50 (SF-268 CNS)
COC(=O)C1=C(C)NC(C)=C(C(=O)OC)C1c1nc2sccn2c1[N+](=O)[O-]	> 100 µM	> 100 µM	> 100 µM	> 100 µM	> 100 µM	> 100 µM	> 100 µM	> 100 µM										
Nc1ccc(S(=O)(=O)Nc2nccs2)cc1	> 100 µM	> 100 µM	> 100 µM	> 100 µM	> 100 µM	> 100 µM	> 100 µM	> 100 µM	> 100 µM									
S=C(Nc1ccc2c(c1)oc1ccccc12)c1cccnc1	> 100 µM	> 100 µM	> 100 µM	> 100 µM	77.7 µM		> 100 µM	87.4 µM	> 100 µM									
C=C1CN2CC(=C)CN(C1)CS(=O)(=O)N1CC(=C)CN(CC(=C)C1)S(=O)(=O)N1CC(=C)CN(CC(=C)C1)S(=O)(=O)C2	> 100 µM	> 100 µM	51.5 µM	38.6 µM	> 100 µM	> 100 µM	48 µM	> 100 µM	> 100 µM									
CC(C)NC(=O)OCCN=c1c2ccccc2ccc2ccccc12	> 100 µM	> 100 µM	> 100 µM	72.5 µM	> 100 µM		35.8 µM	> 100 µM	> 100 µM									
CN(C)c1ccc(C2SCC(=O)N2c2ccc(Oc3ccc(Cl)cc3)c(Cl)c2)cc1 (stereo unspecified)	50.7 µM	60.5 µM	> 100 µM	55.6 µM	54.8 µM		36.8 µM	37.9 µM	39.8 µM									
C=CCOc1ccc(C2C(C(=O)OCC)C(=O)CC(C)(O)C2C(=O)OCC)cc1OC (stereo unspecified)	> 100 µM	> 100 µM	> 100 µM	> 100 µM	> 100 µM	> 100 µM	> 100 µM	> 100 µM	> 100 µM									
Cc1cc(S(=O)(=O)Nc2nc3cc(-c4ccc(Cl)cc4)sc3c(=O)n2N)c(S)cc1Cl	> 100 µM	> 100 µM	> 100 µM	> 100 µM	> 100 µM		> 100 µM	> 100 µM	> 100 µM									
Nc1ccc(C(=O)N2CCC[C@H]2CO)c(N)c1	> 100 µM	> 100 µM	> 100 µM	> 100 µM	> 100 µM	> 100 µM	> 100 µM	> 100 µM	> 100 µM									
COC1C=COC2(C)Oc3c(C)c(O)c4c(O)c(c(C5SCCS5)c(O)c4c3C2=O)NC(=O)C(C)=C/C=C\C(C)C2OC(C)(C)OC(C2C)C(C)C(OC(C)=O)C1C (stereo unspecified)	> 100 µM		24.8 µM	> 100 µM	> 100 µM	29.3 µM	15.5 µM	29.3 µM										
COc1ccc(-c2nn(-c3ccc(NC(=O)Nc4cc(C(F)(F)F)cc(C(F)(F)F)c4)cc3)cc2-c2ccncc2)cc1Cl	> 100 µM	> 100 µM	7.25 µM	> 100 µM	27.3 µM	5.32 µM	4.34 µM	85.8 µM	> 100 µM	2.91 µM	3.22 µM	1.85 µM	2.75 µM	1.73 µM	4 µM	1.31 µM	1.93 µM	3.71 µM

From PubChem BioAssay (NCI)
